Each structure is given as a SMILES string. ≈ marks a conversion by molar mass, not a printed value. Calls of active or inactive are those of the source.

One data set relates to Erythrocyte. Briefly: Hemolytic activity against rat RBC at 320 ug/ml measured after 1 hr. The class given is ADME, cell-based.
Data set [1] has as its system HEK293. The data set is described as follows: Cytotoxicity against HEK293 cells assessed as reduction in cell viability at 40 mg/ml measured after 24 hrs by MTT assay. The class given is cell-based. As to conditions: human, hek293, 24 h.
For data set [2], the system named is HEK293. Briefly: Cytotoxicity against HEK293 cells assessed as reduction in cell viability at 80 mg/ml measured after 24 hrs by MTT assay. The class given is cell-based. As to conditions: human, hek293, 24 h.
Data set [3] can be described thus: Aqueous solubility of the compound in 0.9% NaCl at >= 100 measured after 15 mins. Particulars: buffer, 0.25 h. The data set is classed as physicochemical.
Data set [4] concerns Enterococcus faecium. Briefly: Antibacterial activity against Enterococcus faecium ET60 by broth microdilution method. The class given is functional. (In broth dilution the organism is exposed to a series of concentrations in liquid medium.)
In data set [5] the test system is Enterococcus faecium. The data set is described as follows: Antibacterial activity against Enterococcus faecium ET6 by broth microdilution method. The class given is functional.
Data set [6] has as its system Staphylococcus aureus. Briefly: Antibacterial activity against methicillin-resistant Staphylococcus aureus SA14 by broth microdilution method. The data set is classed as functional.
Data set [7] concerns Staphylococcus aureus. Briefly: Antibacterial activity against methicillin-resistant Staphylococcus aureus SA11 by broth microdilution method. The data set is classed as functional.
Data set [8] has as its system Staphylococcus aureus. Briefly: Antibacterial activity against methicillin-resistant Staphylococcus aureus SA86 by broth microdilution method. The data set is classed as functional.
Data set [9] concerns Staphylococcus aureus. The data set is described as follows: Antibacterial activity against methicillin-resistant Staphylococcus aureus SA88 by broth microdilution method. The class given is functional.
The subject of data set [10] is Staphylococcus aureus. Briefly: Antibacterial activity against Staphylococcus aureus ATCC 29213 by broth microdilution method. The class given is functional.
In data set [11] the test system is Enterococcus faecalis. The data set is described as follows: Antibacterial activity against Enterococcus faecalis ATCC 29212 by broth microdilution method. The class given is functional.
The subject of data set [12] is Enterococcus faecalis. Briefly: Antibacterial activity against Streptococcus faecalis by broth microdilution method. The data set is classed as functional.
Data set [13] concerns Staphylococcus aureus. Briefly: Bactericidal activity against Staphylococcus aureus ATCC 29213 incubated prior to replating on agar plate measured after overnight incubation. The data set is classed as functional.
Data set [14] has as its system Enterococcus faecalis. The data set is described as follows: Bactericidal activity against Enterococcus faecalis ATCC 29212 incubated prior to replating on agar plate measured after overnight incubation. The class given is functional.
In data set [15] the test system is Staphylococcus aureus. Briefly: Antibacterial activity against Staphylococcus aureus USA300 infected in Balb/c mouse model of sepsis assessed as mouse survival at 0.925 mg/kg, sc administered twice daily for 5 days starting from 1 hr post-infection relative to control. The data set is classed as functional.
Data set [16] relates to Staphylococcus aureus. The data set is described as follows: Antibacterial activity against methicillin-resistant Staphylococcus aureus ATCC 33591 infected in iv dosed CD-1 ICR mouse administered as single dose measured after 7 days. The data set is classed as functional. Particulars: ATCC 33591, iv, 168 h.
Data set [17] concerns Staphylococcus aureus. Briefly: Antibacterial activity against methicillin-resistant Staphylococcus aureus 0114 infected in iv dosed CD-1 ICR mouse administered as single dose measured after 7 days. As to conditions: Staphylococcus aureus, 0114, iv, 168 h. The class given is functional.
Data set [18] deals with Enterococcus faecalis. Briefly: Antibacterial activity against Enterococcus faecalis ZS129 infected in Galleria mellonella larvae assessed as larvae survival at 50 mg/kg measured at 96 hrs post-infection relative to control. The data set is classed as functional. As to conditions: ZS129, 96 h.
Data set [19] relates to Enterococcus faecalis. Briefly: Antibacterial activity against Enterococcus faecalis T1027 infected in Galleria mellonella larvae assessed as larvae survival at 50 mg/kg measured at 96 hrs post-infection relative to control. As to conditions: T1027, 96 h. The class given is functional.
Data set [20] deals with Staphylococcus aureus. The data set is described as follows: Antibacterial activity against Staphylococcus aureus ATCC 29213 assessed as mutation prevention concentration measured after 72 hrs. The class given is functional. Particulars: ATCC 29213, 72 h.
The test system of data set [21] is Enterococcus faecalis. Briefly: Antibacterial activity against Enterococcus faecalis ATCC 29212 assessed as mutation prevention concentration measured after 72 hrs. The class given is functional. Particulars: ATCC 29212, 72 h.
Data set [22] has as its system Staphylococcus aureus. The data set is described as follows: Bactericidal activity against Staphylococcus aureus ATCC 29213 assessed as reduction in bacterial load at 4 to 8 ug/ml preincubated for up to 24 hrs followed by subculturing on LB agar plate by time-kill assay. The class given is functional, organism-based.
The test system of data set [23] is Staphylococcus aureus. The data set is described as follows: Bactericidal activity against Staphylococcus aureus ATCC 29213 assessed as reduction in bacterial load at 16 ug/ml preincubated for 24 hrs followed by subculturing on LB agar plate by time-kill assay. The data set is classed as functional, organism-based.
In data set [24] the test system is Enterococcus faecalis. The data set is described as follows: Bactericidal activity against Enterococcus faecalis ATCC 29212 assessed as reduction in bacterial load at 4 to 16 ug/ml preincubated for up to 24 hrs followed by subculturing on LB agar plate by time-kill assay. The class given is functional, organism-based.
Data set [25] deals with Staphylococcus aureus. Briefly: Antibacterial activity against methicillin-resistant Staphylococcus aureus ATCC 43300 infected in Galleria mellonella larvae assessed as increase in larvae survival at 50 mg/kg measured up to 72 hrs post-infection. The data set is classed as functional, organism-based.
In data set [26] the test system is Staphylococcus aureus. Briefly: Antibacterial activity against daptomycin-resistant Staphylococcus aureus SA11 infected in Galleria mellonella larvae assessed as increase in larvae survival at 50 mg/kg measured up to 72 hrs post-infection. The data set is classed as functional, organism-based.
The test system of data set [27] is Staphylococcus aureus. Briefly: Antibacterial activity against daptomycin-resistant Staphylococcus aureus SA11 infected in NIH mouse model of neutropenic thigh infection assessed reduction in bacterial level in thigh at 50 mg/kg, sc administered at 2 and 12 hrs post infection and measured at 48 to 60 hrs post-infection. The data set is classed as functional, organism-based.

The subject of data set [28] is Staphylococcus aureus. The data set is described as follows: Antibacterial activity against Staphylococcus aureus USA300 infected in Balb/c mouse model of sepsis assessed as bacterial eradication in kidney at 1.25 mg/kg, sc administered twice daily for 3 days starting from 1 hr post-infection followed by subculturing on LB agar plate and measured after overnight incubation. The class given is functional, organism-based.

Data set [29] deals with Enterococcus faecalis. Briefly: Antibacterial activity against daptomycin-resistant Enterococcus faecalis T1027 infected in NIH mouse model of neutropenic thigh infection assessed reduction in bacterial level in thigh at 50 mg/kg, sc administered at 2 and 12 hrs post infection and measured at 48 to 60 hrs post-infection. The class given is functional, organism-based.
The subject of data set [30] is Staphylococcus aureus. The data set is described as follows: Antibacterial activity against Staphylococcus aureus ATCC 29213 at sub-MIC after 7 serial passages by broth microdilution method. The data set is classed as functional, organism-based.
The test system of data set [31] is Enterococcus faecalis. Briefly: Antibacterial activity against Enterococcus faecalis ATCC 29212 at sub-MIC after 7 serial passages by broth microdilution method. The class given is functional, organism-based.
In data set [32] the test system is Staphylococcus aureus. The data set is described as follows: Induction of cell membrane integrity disruption in Staphylococcus aureus ATCC 29213 at 8 ug/ml measured after 0.5 to 2 hrs by SYTOX green staining based fluorescence assay. The class given is organism-based.
Data set [33] deals with Enterococcus faecalis. Briefly: Induction of cell membrane integrity disruption in Enterococcus faecalis ATCC 29212 at 8 to 32 ug/ml measured after 0.5 to 2 hrs by SYTOX green staining based fluorescence assay. The data set is classed as organism-based.
The subject of data set [34] is Enterococcus faecalis. The data set is described as follows: Induction of cell membrane integrity disruption in Enterococcus faecalis ATCC 29212 at 16 ug/ml measured after 1 hr by SYTOX green staining based confocal laser scanning microscopic analysis. The class given is organism-based.

For the compound `CCCCCCCCCC(=O)N[C@@H](Cc1c[nH]c2ccccc12)C(=O)N[C@H](CC(N)=O)C(=O)N[C@@H](CC(=O)O)C(=O)N[C@@H]1C(=O)NCC(=O)N[C@@H](CCCN)C(=O)N[C@@H](CC(=O)O)C(=O)N[C@H](C)C(=O)N[C@@H](CC(=O)O)C(=O)NCC(=O)N[C@H](CO)C(=O)N[C@@H]([C@H](C)CC(=O)O)C(=O)N[C@@H](CC(=O)c2ccccc2NC)C(=O)O[C@@H]1C` [listing 1 of 2 here], the Activity entry in the data set with Erythrocyte was “Non-Toxic”; in the data set with HEK293 [1] it was “Non-Toxic”; with HEK293 [2], “Toxic”. Moreover, in data set [3], the solubility entry is reported as “Soluble”.

Consider `CCCCCCCCCC(=O)N[C@@H](Cc1cn(C)c2ccccc12)C(=O)N[C@@H](CC(N)=O)C(=O)N[C@@H](CC(=O)O)C(=O)N[C@@H]1C(=O)NCC(=O)N[C@@H](CCCN)C(=O)N[C@@H](CC(=O)O)C(=O)N[C@H](C)C(=O)N[C@@H](CC(=O)O)C(=O)NCC(=O)N[C@H](CO)C(=O)N[C@@H]([C@H](C)CC(=O)O)C(=O)N[C@@H](CC(=O)c2ccccc2N)C(=O)O[C@@H]1C`, for which the minimal inhibitory concentration (MIC) turned out to be 1 µg/mL (≈ 0.612 µM) in the data set on Enterococcus faecium [4]; 1 µg/mL (≈ 0.612 µM) in the data set with Enterococcus faecium [5]; 0.5 µg/mL (≈ 0.306 µM) in the data set with Staphylococcus aureus [6]; 2 µg/mL (≈ 1.22 µM) against Staphylococcus aureus [7]; 0.5 µg/mL (≈ 0.306 µM) in the data set with Staphylococcus aureus [8]; 0.25 µg/mL (≈ 0.153 µM) against Staphylococcus aureus [9]. Further, the results for the MIC in the data set with Staphylococcus aureus [10] and against Enterococcus faecalis [11] were 0.5 µg/mL (≈ 0.306 µM) and 2 µg/mL (≈ 1.22 µM), respectively.

`CCCCCCCCCC(=O)N[C@@H](Cc1c[nH]c2ccccc12)C(=O)N[C@H](CC(N)=O)C(=O)N[C@@H](CC(=O)O)C(=O)N[C@@H]1C(=O)NCC(=O)N[C@@H](CCCN)C(=O)N[C@@H](CC(=O)O)C(=O)N[C@H](C)C(=O)N[C@@H](CC(=O)O)C(=O)NCC(=O)N[C@H](CO)C(=O)N[C@@H]([C@H](C)CC(=O)O)C(=O)N[C@@H](CC(=O)c2ccccc2NC)C(=O)O[C@@H]1C` [listing 2 of 2 here]: the MIC in the data set on Enterococcus faecium [4] stood at 1 µg/mL (≈ 0.612 µM); against Enterococcus faecalis [12], 0.5 µg/mL (≈ 0.306 µM); in the data set on Enterococcus faecium [5] it was 1 µg/mL (≈ 0.612 µM); against Staphylococcus aureus [6], 0.25 µg/mL (≈ 0.153 µM); against Staphylococcus aureus [7] it was 0.5 µg/mL (≈ 0.306 µM); against Staphylococcus aureus [8], 0.25 µg/mL (≈ 0.153 µM). Besides, the MIC worked out at 0.25 µg/mL (≈ 0.153 µM) in the data set on Staphylococcus aureus [9], 0.25 µg/mL (≈ 0.153 µM) in the data set with Staphylococcus aureus [10] and 1 µg/mL (≈ 0.612 µM) against Enterococcus faecalis [11]. Further, the minimal bactericidal concentration (MBC) is 0.06 µg/mL (≈ 0.0367 µM) against Staphylococcus aureus [13] and 4 µg/mL (≈ 2.45 µM) against Enterococcus faecalis [14]. Also, the survival at 0.925 mg/kg in the data set on Staphylococcus aureus [15] came out at 100%. For the same compound, the ED50 turned out to be 1.38 mg/kg in the data set on Staphylococcus aureus [16] and 1.65 mg/kg in the data set on Staphylococcus aureus [17]. The survival at 50 mg/kg in the data set on Enterococcus faecalis [18] came out at 40%; with Enterococcus faecalis [19] it was 60%. Further, the MPC in the data set with Staphylococcus aureus [20] was 8 µg/mL; in the data set with Enterococcus faecalis [21] it was 16 µg/mL.

Take `CCCCCCCCCC(=O)N[C@@H](Cc1c[nH]c2ccccc12)C(=O)N[C@@H](CC(N)=O)C(=O)N[C@@H](CC(=O)O)C(=O)N[C@@H]1C(=O)NCC(=O)N[C@@H](CCCN)C(=O)N[C@@H](CC(=O)O)C(=O)N[C@H](C)C(=O)N[C@@H](CC(=O)O)C(=O)NCC(=O)N[C@H](CO)C(=O)N[C@@H]([C@H](C)CC(=O)O)C(=O)N[C@@H](CC(=O)c2ccccc2NC)C(=O)O[C@@H]1C`: the result in the data set on Staphylococcus aureus [22], in the data set with Staphylococcus aureus [23], with Enterococcus faecalis [24], in the data set with Staphylococcus aureus [25], with Staphylococcus aureus [26] and in the data set with Staphylococcus aureus [27] was Active. Also, the result in the data set with Staphylococcus aureus [28], in the data set with Enterococcus faecalis [29], in the data set on Staphylococcus aureus [30], in the data set with Staphylococcus aureus [32], in the data set with Enterococcus faecalis [33] and in the data set on Enterococcus faecalis [34] was Active. In the data set with Enterococcus faecalis [31], the outcome was inactive.

As a reminder, the MIC is the smallest concentration in the dilution series that meets the test's criterion for growth inhibition. Low values mean inhibition by little substance, high ones a need for much substance. A word on the MBC: it is the smallest concentration meeting the test's criterion for killing. By ED50 is commonly meant the dose that gives a 50% effect, or the effect in half of the subjects. Read a low ED50 as an effect at a small dose.

The record behind these values is ChEMBL document CHEMBL4402571, “Methylation of Daptomycin Leading to the Discovery of Kynomycin, a Cyclic Lipodepsipeptide Active against Resistant Pathogens” (J Med Chem, 2020).
